Reference: patent US20060024414A1, “Methods for preserving food products” (Kraft Foods Holdings, Inc., priority 2004, published 2006)

What was measured:
[1] = test system: Listeria monocytogenes OSY-8578; assay: Inoculated bagged Vienna sausage challenge, warm enrichment/plating for survivors; type: cell-based; settings: nisin 0 IU/g, about 5 min; for Percentage of Bags Testing Positive For Listeria in Batch of 5 (±S.D.): TBHQ 100 ppm, sausage about 10^6 CFU/g; for Percentage of Bags Testing Positive For Listeria in Batch of 3 (±S.D.): TBHQ 300 ppm, sausage about 10^6 per g
Protocol: In another embodiment, a food substrate processed according to methods of this invention has nondetectable levels of Listeria (even if contamination has occurred). […] The mixture is incubated at 37° C. for 48 hours, followed by the enrichment (mixture) being streaked on Oxford agar or […] agar, and observing the streaked plate for the presence/absence of Listeria. […] Tailing effects also may be reduced or eliminated by methods of the present invention. The presence or absence of other microorganisms may be detected using similar techniques modified for the specific microorganism under consideration. The edible hydroquinone was tert-butylhydroquinone (TBHQ) at a level of either 0 or 100 ppm. The tert-butylhydroquinone was a food grade material obtained from Sigma Chemical Co. (St. Louis, Mo.). The lantibiotic was nisin at a level of either 0 or 100 IU/g. The nisin used was either pure nisin or a commercial nisin ([…]®), both from Aplin & Barrett, Ltd. (Trowbridge, England). […] Nisin samples were prepared by dissolving nisin powder in distilled water, adjusting the pH to 2 with HCl, and sterilizing at 121° C. for 10 minutes. Samples were prepared and used on the same day for each experiment. Three strains of Listeria monocytogenes were used in these challenge studies. Listeria monocytogenes Scott A, OSY-8578, and OSY-328, were obtained from the Food Safety Laboratory of the Department of Food Science and Technology at The Ohio State University (Columbus, Ohio). All experiments were carried out with cultures in stationary phase (grown in tryptose broth (TB; Difco Laboratories, Detroit, Mich.) for 18 hours at 37° C.). […] The hydrostatic pressure used was 600 MPa. For comparison purposes, samples were also treated with no hydrostatic pressure (i.e., under atmospheric pressure). A hydrostatic food processor (Quintus QFP-6, ABB Autoclave Systems, Inc., Columbus, Ohio) was used with a pressure transmitting fluid containing a water/propylene glycol (1:1 vol/vol; Houghto-Safe 620-TY, Houghton International, Inc., Valley Forge, Pa.). Samples were held in a refrigerator before processing and placed on ice following treatment. The temperature during each run was monitored using a thermocouple and a datalogger (Campbell Scientific, Inc., Logan, Utah). […] Canned Vienna sausage (Armour®, The Dial Corporation, Scottsdale, Ariz.) was purchased from local grocery stores. […] One milliliter of each additive, alone or in combinations, was added, and the bags were sealed using vacuum […], Kansas City, Mo.). […] Non-pressurized samples were treated in a similar manner except that no pressure was applied. After high pressure processing, bags were opened aseptically. […] The presence or absence of L. monocytogenes survivors in the samples was determined by streaking the incubated mixture onto Oxford agar and/or […] agar. Each test run consisted of 5 tested bags at a given set of variables; the experiment was repeated 4 times. Treatment conditions required for essentially total elimination of L. monocytogenes were determined using essentially the same materials and procedures as used in Example 1 except that the nisin level was 0, 100, or 200 IU/g; the hydroquinone level was 0, 100, 200, or 300 ppm; and each experiment was repeated 3 times.

[2] = test system: Listeria monocytogenes strains; assay: Tailing behaviour during pressure treatment in phosphate buffer; type: cell-based; settings: combination of high pressure (300, 500, 700 MPa) and TBHQ about 100 ppm
Protocol: Three strains of Listeria monocytogenes identified in Example 1 were grown in tryptose broth for 18 hours at 37° C. Cultures were centrifuged at 10,000 rpm for 15 minutes at 4° C. Cell pellets were resuspended in phosphate buffer (pH 7.0) and the cell population of each strain was adjusted to 10^9 CFU/ml. Tert-butylhydroquinone was added at about 100 ppm (10% vol/vol TBHQ/culture). Preparation of sample bags and the high pressure treatment procedures were same as indicated in Example 1. Pressures tested were 300, 500, and 700 MPa. Control and high pressure-treated treated samples were serially diluted in 0.1% peptone water and spread-plated on tryptose agar. The plates were incubated at 37° C. for 48-72 hours and the colonies were counted.
The detection level for enumeration was 10 CFU/ml. The initial population of OSY-328 averaged about 8.9 logs; therefore, more than 7.9 log reduction indicates below the detection level.

In the case of `CC(C)(C)c1cc(O)ccc1O` [TBHQ, tert-butylhydroquinone], the “Percentage of Bags Testing Positive For Listeria in Batch of 5 (±S.D.)” value ([1]; Run 3: 0 MPa) is reported as 100%, the “Percentage of Bags Testing Positive For Listeria in Batch of 5 (±S.D.)” value ([1]; Run 7: 600 MPa) is reported as 25 (±30) % and the “Percentage of Bags Testing Positive For Listeria in Batch of 3 (±S.D.)” value ([1]; Run 10: 0 MPa) is reported as 100%. For the same molecule, the “Percentage of Bags Testing Positive For Listeria in Batch of 3 (±S.D.)” value ([1]; Run 15: 600 MPa) was 0% and the tailing phenomenon [2] was “eliminated the tailing phenomenon”.
